US10738031B2, “N-[(heteroaryloxy)propanyl]heteroaryl carboxamides as antagonists of orexin subtype 1 receptor activity” (Boehringer Ingelheim International GmbH, priority 2016, dated 2020)
Where two headings read alike, the source gives them in different places.

How the values were obtained:
OX1R = molecular target: T1, OX1R (Homo sapiens, UniProt O43613); assay: OX1R potency as described in WO2016/034882; conditions: for IC50: read-out: OX1R IC50 (corresponds to pIC50) (converted)
T1 sequence (O43613 1-425): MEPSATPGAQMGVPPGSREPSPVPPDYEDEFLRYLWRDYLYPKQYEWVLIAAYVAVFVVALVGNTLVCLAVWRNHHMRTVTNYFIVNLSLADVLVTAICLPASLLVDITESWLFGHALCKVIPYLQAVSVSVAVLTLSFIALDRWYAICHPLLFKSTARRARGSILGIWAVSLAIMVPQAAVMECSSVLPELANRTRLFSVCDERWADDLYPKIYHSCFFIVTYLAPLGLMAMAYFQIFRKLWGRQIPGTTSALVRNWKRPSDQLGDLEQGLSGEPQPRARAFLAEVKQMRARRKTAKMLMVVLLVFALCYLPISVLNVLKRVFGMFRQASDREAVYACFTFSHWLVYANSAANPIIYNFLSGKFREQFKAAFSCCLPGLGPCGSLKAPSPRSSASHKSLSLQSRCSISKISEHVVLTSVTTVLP

OX2R [1] = molecular target: T2, OX2R (Homo sapiens, UniProt O43614); assay: OX2R potency as described in WO2016/034882; conditions: read-out: OX2R IC50 (corresponds to pIC50) (converted)
T2 sequence (O43614 1-444): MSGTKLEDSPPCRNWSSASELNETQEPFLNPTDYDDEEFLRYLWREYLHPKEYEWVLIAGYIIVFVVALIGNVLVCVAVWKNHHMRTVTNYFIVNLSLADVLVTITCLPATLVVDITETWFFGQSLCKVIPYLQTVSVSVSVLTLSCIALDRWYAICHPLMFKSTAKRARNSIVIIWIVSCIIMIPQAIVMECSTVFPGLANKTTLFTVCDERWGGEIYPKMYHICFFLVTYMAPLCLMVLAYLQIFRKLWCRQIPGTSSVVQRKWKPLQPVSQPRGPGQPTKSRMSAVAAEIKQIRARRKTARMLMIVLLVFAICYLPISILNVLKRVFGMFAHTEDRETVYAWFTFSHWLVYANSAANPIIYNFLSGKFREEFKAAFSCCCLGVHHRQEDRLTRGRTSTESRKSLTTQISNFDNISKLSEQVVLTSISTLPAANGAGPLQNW

OX2R [2] = molecular target: T2, OX2R; conditions: cited from earlier work

Row | OX2R IC50/OX1R IC50 (OX1R; Table 1 of WO2016/034882) | OX2R IC50/OX1R IC50 (OX1R; Table 2 of WO2016/034882) | IC50 (OX1R; Table 2 of WO2016/034882) | OX2R IC50/OX1R IC50 (OX1R; Table 3 of WO2016/034882) | IC50 (OX1R; Table 3 of WO2016/034882) | IC50 (OX2R [1]; Table 1 of WO2016/034882) | IC50 (OX2R [1]; Table 3 of WO2016/034882) | Structure (SMILES) | OX2R pIC50 (OX2R [2]; Table 2 of WO2016/034882) | OX2R pIC50 (OX2R [2]; Table 3 of WO2016/034882)
1 | 390 | > 312 | 32 nM | 3200 | 3.2 nM | 7800 nM | ≥ 10000 nM | CC[C@@H](CNc1ncc(C(F)(F)F)cn1)N(C)C(=O)c1nc(C)ccc1-n1nccn1 [Ex 46 in WO2016/ 034882] | < 5.0 | < 5.0
2 |  |  |  |  |  |  |  | CC[C@@H](CNc1ncc(C(F)(F)F)cn1)N(CC)C(=O)c1nc(C)ccc1-n1nccn1 [Ex 73 in WO2016/ 034882] |  | < 6.0
